In ChEMBL document CHEMBL1201862, “PubChem BioAssay data set” (2004):
Activity calls are given as the source filed them.

Key:
[1] = target: T1, Cytochrome P450 1A2 (Homo sapiens, UniProt P05177);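 also: PubChem cytochrome P450 panel assay, CYP1A2 panel member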
T1 sequence (P05177 whole entry): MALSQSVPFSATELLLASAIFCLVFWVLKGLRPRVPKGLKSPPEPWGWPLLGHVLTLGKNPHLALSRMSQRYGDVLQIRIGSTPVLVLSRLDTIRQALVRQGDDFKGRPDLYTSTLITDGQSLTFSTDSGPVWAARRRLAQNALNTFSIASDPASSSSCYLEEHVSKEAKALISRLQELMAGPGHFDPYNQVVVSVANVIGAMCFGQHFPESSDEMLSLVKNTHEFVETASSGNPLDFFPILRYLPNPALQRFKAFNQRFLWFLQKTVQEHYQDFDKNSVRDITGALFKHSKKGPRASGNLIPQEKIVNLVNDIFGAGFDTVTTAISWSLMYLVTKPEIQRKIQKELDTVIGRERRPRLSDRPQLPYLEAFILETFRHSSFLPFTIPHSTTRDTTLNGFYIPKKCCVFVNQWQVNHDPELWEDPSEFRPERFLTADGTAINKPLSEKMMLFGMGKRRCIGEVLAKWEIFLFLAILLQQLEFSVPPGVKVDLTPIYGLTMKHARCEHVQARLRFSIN

[2] = target: T2, Dual specificity protein phosphatase 3 (Homo sapiens, UniProt P51452); experiment: VHR1 phosphatase inhibitors, primary screen, biochemical, absorbance, uHTS (AID 1654)
T2 sequence (P51452 whole entry): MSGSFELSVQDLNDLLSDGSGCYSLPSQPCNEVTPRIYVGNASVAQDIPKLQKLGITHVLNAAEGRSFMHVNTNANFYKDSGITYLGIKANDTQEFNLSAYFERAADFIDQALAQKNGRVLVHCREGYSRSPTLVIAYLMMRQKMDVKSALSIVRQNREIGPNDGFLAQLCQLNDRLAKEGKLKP

[3] = target: T2, Dual specificity protein phosphatase 3; experiment: VHR1 phosphatase inhibitors, biochemical (AID 1878)
[4] = target: Low molecular weight phosphotyrosine protein phosphatase (Homo sapiens, UniProt P24666); type: functional; settings: read-out: IC50_Mean
[5] = target: T3, Carboxy-terminal domain RNA polymerase II polypeptide A small phosphatase 1 (Homo sapiens, UniProt Q9GZU7); experiment: inhibitors of CTDSP1, concentration-response testing, biochemical assay, absorbance-based, actives from ultra-high-throughput screening (AID 540297); type: functional
T3 sequence (Q9GZU7 whole entry): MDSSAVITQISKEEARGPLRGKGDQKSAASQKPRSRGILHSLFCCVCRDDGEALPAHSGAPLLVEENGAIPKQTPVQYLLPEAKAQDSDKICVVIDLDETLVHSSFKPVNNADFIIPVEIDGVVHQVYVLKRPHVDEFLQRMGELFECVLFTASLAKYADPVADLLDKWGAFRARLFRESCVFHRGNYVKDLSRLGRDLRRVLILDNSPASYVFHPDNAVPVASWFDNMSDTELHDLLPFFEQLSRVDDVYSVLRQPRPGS

[6] = target: T4, Dual specificity protein phosphatase 6 (Rattus norvegicus, UniProt Q64346); experiment: MKP-3 phosphatase inhibitors, primary screen, biochemical, rat enzyme, in vitro (AID 425)
T4 sequence (Q64346 whole entry): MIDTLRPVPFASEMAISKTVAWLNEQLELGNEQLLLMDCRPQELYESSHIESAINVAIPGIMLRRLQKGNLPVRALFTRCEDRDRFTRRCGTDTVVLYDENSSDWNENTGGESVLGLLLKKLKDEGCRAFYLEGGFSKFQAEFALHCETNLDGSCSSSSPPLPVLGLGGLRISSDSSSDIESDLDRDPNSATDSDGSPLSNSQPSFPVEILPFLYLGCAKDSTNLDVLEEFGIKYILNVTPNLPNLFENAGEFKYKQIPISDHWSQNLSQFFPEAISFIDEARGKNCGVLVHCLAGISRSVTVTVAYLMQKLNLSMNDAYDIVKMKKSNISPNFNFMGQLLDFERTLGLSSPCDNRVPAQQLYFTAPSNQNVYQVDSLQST

[7] = Luminescence Cell-Based Dose Retest to Confirm Inhibitors of Cancer Stem Cells. [Related pubchem assays (depositor defined):AID2717, AID2721]; type: functional; settings: Homo sapiens
[8] = cytotoxicity in HMLE control line with eGFP shRNA, dose response, counter-screen for HMLE_sh_ECad selective toxicity project, cell-based, HMLE_sh_eGFP, luminescence (AID 463074); type: functional, Homo sapiens;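 also: HMLE human mammary epithelial cells expressing control shRNA against eGFP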
[9] = target: Large T antigen (Simian virus 40, UniProt P03070); type: functional, Betapolyomavirus macacae;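 also: Confirmatory-stage PubChem screen for compounds that inhibit SV40 T antigen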
Large T antigen, sequence (P03070 whole entry): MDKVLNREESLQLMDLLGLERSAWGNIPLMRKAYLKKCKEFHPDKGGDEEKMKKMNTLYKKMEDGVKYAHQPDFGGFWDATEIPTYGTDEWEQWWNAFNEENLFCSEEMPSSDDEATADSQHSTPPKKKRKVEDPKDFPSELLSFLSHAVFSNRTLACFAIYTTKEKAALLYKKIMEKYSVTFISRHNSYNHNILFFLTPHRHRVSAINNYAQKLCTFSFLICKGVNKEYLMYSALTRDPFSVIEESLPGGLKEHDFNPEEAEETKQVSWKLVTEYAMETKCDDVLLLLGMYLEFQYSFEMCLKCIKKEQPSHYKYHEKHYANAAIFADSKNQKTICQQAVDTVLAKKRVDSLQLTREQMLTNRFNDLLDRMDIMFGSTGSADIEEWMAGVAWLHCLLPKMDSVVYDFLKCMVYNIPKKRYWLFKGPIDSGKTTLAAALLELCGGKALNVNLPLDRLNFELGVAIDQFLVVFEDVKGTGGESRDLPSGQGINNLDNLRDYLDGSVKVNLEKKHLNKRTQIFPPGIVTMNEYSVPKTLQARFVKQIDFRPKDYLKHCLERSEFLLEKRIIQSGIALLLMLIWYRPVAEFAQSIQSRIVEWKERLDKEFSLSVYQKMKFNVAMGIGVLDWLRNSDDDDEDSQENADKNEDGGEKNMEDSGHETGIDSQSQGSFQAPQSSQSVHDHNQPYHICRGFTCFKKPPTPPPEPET

[10] = target: T5, Polyadenylate-binding protein 1 (Homo sapiens, UniProt P11940); experiment: PABP1 MLLE–PAM2 binding inhibitor potency, dose response, biochemical, fluorescence polarization, FITC-PAM2 peptide (AID 602259); type: functional; settings: read-out: IC50_Mean
T5 sequence (P11940 whole entry): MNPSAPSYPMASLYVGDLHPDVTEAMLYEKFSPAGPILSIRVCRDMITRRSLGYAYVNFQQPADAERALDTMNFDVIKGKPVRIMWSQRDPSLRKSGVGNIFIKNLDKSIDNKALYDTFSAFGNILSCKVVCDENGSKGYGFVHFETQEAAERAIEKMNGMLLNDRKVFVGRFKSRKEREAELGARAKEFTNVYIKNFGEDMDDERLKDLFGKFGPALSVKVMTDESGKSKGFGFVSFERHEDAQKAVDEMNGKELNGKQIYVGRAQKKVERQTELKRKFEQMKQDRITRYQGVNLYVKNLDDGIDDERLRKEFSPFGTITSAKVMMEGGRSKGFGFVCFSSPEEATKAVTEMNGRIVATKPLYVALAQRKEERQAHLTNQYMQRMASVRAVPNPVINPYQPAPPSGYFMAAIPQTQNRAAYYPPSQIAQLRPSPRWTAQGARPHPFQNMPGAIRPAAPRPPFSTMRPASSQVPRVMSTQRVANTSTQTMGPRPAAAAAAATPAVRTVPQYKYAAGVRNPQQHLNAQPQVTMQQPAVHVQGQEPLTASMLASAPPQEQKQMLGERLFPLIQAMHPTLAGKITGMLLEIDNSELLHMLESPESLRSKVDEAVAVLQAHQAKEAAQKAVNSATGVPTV

[11] = target: T5, Polyadenylate-binding protein 1; experiment: PABP1 MLLE–PAM2 interaction inhibitors, dose response, miRNA deadenylation inhibitor project, biochemical, fluorescence polarization, Cy5-PAM2 peptide, secondary (AID 602260); type: functional; settings: read-out: IC50_Mean
[12] = target: Genome polyprotein (dengue virus type 2, UniProt P29990); experiment: Dengue-2 NS5 methyltransferase inhibitors, primary screen, biochemical, confirmation dose response (AID 588689); type: functional
[13] = target: Lysine-specific demethylase 4C (Homo sapiens, UniProt Q9H3R0); experiment: GASC-1 (JMJD2C) histone demethylase inhibitors, dose response, biochemical, DELFIA europium, cherry-picked samples (AID 488835); type: functional
[14] = target: T6, Apoptotic protease-activating factor 1 (Homo sapiens, UniProt O14727); experiment: activation of Apaf-1 mediated apoptosis – fluorescent, uHTS hits, dose response (AID 588554); type: functional
T6 sequence (O14727 whole entry): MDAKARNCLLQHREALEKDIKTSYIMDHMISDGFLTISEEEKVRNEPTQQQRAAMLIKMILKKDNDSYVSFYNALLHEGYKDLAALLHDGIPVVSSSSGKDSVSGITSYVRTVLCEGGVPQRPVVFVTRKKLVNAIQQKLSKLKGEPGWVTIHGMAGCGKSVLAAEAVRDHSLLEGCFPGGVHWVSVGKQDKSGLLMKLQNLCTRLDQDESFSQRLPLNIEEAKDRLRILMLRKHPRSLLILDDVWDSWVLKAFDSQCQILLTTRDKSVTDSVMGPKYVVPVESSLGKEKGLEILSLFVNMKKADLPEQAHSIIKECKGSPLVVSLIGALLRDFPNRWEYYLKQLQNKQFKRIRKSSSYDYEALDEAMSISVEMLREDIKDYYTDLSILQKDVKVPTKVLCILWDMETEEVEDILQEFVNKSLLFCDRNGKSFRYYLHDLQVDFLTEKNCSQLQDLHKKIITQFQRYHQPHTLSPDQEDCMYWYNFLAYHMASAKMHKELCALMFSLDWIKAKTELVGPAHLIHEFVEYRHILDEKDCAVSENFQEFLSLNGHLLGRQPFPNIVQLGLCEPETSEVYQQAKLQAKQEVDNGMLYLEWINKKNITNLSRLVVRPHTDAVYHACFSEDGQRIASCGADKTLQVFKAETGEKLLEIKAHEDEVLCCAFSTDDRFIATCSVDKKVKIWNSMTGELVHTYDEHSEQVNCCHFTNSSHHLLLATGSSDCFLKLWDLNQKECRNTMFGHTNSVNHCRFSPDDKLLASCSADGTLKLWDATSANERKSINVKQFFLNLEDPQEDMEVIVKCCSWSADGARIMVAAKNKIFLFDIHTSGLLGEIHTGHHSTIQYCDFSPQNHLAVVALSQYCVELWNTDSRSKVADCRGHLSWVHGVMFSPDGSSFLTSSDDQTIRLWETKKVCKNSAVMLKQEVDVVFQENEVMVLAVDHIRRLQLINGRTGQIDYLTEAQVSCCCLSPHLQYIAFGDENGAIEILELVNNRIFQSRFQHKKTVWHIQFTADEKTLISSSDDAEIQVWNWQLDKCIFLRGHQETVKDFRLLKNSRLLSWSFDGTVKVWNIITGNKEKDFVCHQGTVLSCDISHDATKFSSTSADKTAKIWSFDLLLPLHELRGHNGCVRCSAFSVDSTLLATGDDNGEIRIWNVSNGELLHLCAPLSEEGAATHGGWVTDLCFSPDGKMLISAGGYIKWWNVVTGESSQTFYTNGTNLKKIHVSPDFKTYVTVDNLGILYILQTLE

[15] = target: Cytochrome P450 2C19 (Homo sapiens, UniProt P33261); experiment: Cytochrome panel assay with activity outcomes. Panel member name: p450-cyp2c19 Compounds with AC50 equal or less than 10 uM are considered active; type: functional
[16] = target: Cytochrome P450 2D6 (Homo sapiens, UniProt P10635);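 also: CYP2D6 member of a cytochrome P450 panel assay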
[17] = target: Phosphomannomutase 2 (Homo sapiens, UniProt O15305); experiment: Counter screen SAR assay for PMM2 inhibitors via a fluorescence intensity assay. [Related pubchem assays (depositor defined):AID1545, AID1574]
[18] = target: T7, Mannose-6-phosphate isomerase (Homo sapiens, UniProt P34949); experiment: PMI enzyme inhibitors, confirmation, biochemical, fluorescence intensity (AID 1535)
T7 sequence (P34949 whole entry): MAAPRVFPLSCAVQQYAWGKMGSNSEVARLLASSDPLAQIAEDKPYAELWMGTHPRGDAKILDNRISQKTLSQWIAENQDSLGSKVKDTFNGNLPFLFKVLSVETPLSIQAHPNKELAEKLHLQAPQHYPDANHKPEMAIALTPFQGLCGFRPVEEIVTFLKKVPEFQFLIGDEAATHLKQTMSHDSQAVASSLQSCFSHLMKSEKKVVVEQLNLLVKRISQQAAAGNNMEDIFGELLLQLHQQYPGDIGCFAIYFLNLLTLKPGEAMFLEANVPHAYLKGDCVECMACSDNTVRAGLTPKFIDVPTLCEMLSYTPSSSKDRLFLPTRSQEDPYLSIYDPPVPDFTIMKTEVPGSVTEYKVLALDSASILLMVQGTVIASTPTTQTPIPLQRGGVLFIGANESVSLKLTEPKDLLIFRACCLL

[19] = target: Keap1/Nrf2 (Homo sapiens, UniProt Q14145); experiment: Keap1-Nrf2 protein-protein interaction inhibitors, dose response, biochemical, fluorescence polarization, cherry-picked samples (AID 588683)
[20] = target: T8, Alkaline phosphatase, tissue-nonspecific isozyme (Homo sapiens, UniProt P05186); experiment: inhibition of tissue-nonspecific alkaline phosphatase – biochemical, dose response (AID 488882); type: functional
T8 sequence (P05186 whole entry): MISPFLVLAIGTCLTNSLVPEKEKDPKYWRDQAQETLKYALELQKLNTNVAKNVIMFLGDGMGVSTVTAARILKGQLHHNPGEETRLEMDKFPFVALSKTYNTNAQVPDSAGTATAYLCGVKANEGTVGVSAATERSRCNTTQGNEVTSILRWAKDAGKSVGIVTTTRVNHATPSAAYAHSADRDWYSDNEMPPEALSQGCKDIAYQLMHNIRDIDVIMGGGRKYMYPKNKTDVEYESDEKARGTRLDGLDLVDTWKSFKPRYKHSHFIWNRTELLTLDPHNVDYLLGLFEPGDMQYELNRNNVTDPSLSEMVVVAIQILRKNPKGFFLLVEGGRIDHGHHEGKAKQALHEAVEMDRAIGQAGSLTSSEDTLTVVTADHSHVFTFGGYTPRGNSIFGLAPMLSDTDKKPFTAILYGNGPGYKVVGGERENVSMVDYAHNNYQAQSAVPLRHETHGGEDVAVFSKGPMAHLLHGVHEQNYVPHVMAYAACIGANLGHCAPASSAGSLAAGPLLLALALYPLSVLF

[21] = target: T9, Intestinal-type alkaline phosphatase (Homo sapiens, UniProt P09923); experiment: Dose Response confirmation of uHTS hits from a small molecule inhibitors of human intestinal alkaline phosphatase via a luminescent assay. [Related pubchem assays (depositor defined):AID2544, AID2574]; type: functional
T9 sequence (P09923 whole entry): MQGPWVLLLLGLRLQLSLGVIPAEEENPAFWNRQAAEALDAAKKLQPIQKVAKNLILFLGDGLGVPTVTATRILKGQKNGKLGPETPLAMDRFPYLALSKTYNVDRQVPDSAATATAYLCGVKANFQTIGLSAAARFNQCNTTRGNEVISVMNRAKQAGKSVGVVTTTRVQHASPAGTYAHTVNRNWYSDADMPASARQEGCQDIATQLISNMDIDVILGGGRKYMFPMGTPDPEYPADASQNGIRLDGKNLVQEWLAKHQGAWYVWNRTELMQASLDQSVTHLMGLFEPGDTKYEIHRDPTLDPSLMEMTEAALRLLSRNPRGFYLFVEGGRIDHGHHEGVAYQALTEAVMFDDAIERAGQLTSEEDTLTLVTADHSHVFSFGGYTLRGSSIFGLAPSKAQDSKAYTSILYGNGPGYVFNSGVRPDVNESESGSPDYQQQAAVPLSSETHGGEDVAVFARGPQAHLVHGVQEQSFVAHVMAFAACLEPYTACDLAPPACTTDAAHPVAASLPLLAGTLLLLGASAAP

[22] = target: Intestinal-type alkaline phosphatase (Mus musculus, UniProt P24822); experiment: PubChem AID 488874; type: functional
[23] = target: T9, Intestinal-type alkaline phosphatase; experiment: human IAP inhibitors, dose response, biochemical, luminescent, uHTS hits, set 2 (AID 488793); type: functional
[24] = target: Exodeoxyribonuclease V (Escherichia coli (strain K12), UniProt P04993+P07648+P08394); experiment: E. coli RecBCD inhibitors, dose response, counter-screen for AddAB inhibitor project, absorbance, V66 E. coli, mutant T4 phage (AID 492957); type: functional, cell-based, Escherichia coli str. K-12 substr. MG1655
Exodeoxyribonuclease V, sequence (P04993 whole entry): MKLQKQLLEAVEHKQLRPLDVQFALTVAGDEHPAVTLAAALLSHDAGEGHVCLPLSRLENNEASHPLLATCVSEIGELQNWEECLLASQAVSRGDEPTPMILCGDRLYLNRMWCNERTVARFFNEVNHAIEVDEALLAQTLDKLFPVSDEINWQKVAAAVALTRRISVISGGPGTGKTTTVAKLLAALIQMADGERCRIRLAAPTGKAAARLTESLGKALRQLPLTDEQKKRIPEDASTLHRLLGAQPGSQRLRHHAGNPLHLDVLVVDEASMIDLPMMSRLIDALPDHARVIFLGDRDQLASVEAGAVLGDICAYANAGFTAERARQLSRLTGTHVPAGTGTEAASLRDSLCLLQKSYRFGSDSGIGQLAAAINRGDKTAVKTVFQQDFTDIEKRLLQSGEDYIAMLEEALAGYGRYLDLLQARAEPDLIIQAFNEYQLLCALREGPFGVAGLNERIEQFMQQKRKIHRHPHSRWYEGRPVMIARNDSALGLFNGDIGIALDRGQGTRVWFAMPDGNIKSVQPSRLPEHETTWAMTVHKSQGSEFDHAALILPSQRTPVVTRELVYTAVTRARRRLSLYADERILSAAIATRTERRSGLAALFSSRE
Exodeoxyribonuclease V, sequence (P07648 whole entry): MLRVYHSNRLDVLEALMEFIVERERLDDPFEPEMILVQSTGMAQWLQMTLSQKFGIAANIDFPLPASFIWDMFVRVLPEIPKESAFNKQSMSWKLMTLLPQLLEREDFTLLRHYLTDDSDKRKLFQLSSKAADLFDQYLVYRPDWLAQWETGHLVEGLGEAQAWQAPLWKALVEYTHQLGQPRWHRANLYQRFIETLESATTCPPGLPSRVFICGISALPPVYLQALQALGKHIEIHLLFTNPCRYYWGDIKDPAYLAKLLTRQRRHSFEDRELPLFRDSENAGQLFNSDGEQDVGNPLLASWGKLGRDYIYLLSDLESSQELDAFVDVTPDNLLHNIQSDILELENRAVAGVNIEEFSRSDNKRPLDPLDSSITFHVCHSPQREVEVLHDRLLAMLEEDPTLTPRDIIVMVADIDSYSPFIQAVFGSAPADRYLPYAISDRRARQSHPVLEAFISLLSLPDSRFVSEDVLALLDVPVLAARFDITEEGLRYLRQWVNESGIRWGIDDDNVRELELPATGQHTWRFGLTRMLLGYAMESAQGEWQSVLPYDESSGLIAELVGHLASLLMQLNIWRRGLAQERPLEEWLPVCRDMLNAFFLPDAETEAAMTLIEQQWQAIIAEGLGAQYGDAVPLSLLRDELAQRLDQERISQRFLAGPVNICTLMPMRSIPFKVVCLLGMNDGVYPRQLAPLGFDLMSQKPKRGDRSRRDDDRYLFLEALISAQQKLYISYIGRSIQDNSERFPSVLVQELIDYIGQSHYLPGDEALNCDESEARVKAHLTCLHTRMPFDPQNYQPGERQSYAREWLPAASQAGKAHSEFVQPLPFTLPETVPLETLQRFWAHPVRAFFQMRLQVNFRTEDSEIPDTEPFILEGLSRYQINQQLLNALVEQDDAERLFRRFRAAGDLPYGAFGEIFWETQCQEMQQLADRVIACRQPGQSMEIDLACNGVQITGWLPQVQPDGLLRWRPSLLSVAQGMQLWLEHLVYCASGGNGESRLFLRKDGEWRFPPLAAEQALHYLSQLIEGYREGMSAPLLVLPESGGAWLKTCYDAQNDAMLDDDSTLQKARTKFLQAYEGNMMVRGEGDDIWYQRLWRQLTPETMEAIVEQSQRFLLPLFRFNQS
Exodeoxyribonuclease V, sequence (P08394 whole entry): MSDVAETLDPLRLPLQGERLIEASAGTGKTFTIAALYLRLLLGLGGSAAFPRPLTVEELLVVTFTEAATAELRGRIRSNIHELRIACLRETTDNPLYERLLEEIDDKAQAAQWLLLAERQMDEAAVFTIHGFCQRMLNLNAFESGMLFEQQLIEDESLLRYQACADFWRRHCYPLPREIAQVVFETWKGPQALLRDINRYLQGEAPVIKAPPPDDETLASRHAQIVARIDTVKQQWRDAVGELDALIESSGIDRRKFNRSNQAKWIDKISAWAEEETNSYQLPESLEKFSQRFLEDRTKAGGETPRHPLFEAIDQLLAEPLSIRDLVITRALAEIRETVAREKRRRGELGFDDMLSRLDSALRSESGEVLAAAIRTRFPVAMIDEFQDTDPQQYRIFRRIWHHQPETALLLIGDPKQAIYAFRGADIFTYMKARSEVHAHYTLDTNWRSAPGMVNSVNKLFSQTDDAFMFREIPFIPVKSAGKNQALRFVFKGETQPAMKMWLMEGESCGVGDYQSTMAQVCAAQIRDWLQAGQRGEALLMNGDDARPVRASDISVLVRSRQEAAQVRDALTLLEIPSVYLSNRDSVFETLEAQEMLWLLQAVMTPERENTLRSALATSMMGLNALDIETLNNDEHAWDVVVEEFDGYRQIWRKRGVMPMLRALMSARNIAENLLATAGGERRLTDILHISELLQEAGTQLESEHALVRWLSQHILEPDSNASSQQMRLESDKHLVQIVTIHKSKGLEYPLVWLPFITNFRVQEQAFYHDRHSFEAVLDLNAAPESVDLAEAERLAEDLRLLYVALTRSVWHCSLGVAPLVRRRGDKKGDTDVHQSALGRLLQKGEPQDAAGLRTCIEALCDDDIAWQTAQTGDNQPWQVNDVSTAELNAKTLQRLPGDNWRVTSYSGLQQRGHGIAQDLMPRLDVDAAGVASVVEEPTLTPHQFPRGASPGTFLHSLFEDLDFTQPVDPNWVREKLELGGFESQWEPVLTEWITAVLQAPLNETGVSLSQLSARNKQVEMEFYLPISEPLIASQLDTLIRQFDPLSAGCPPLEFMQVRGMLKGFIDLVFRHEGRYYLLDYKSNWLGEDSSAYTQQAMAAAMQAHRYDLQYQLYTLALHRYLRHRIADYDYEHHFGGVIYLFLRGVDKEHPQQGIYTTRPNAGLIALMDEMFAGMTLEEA

[25] = Counterscreen for AddAB inhibitors: absorbance-based bacterial cell-based high throughput dose response assay for inhibitors of bacterial viability. [Related pubchem assays (depositor defined):AID435030, AID449728, AID449731, AID488942, AID488955, AID488956]; type: functional

Compound: O=S(=O)(c1ccccc1)N1CCC[C@@]2(CCN(Cc3cc(C(F)(F)F)cc(C(F)(F)F)c3)C2)C1
- AC50 [1]: inconclusive

Compound: Cc1ccc(-n2c(=O)c3cc4c(=O)n(-c5ccc(C)c(C)c5)c(=O)c4c(C(=O)c4ccc(C(=O)O)cc4)c3c2=O)cc1C
- IC50 [2]: 3.39 µM (active)
- IC50 [3]: 5.31 µM (active)
- IC50 [4]: 3.13 µM (active)
- IC50 [5]: 1.12 µM (active)
- IC50 [6]: 18.9 µM (active)

Compound: O=C(Nc1ccc(OCc2ccccc2)cc1)c1cccs1
- AC50 [7]: 1.98 µM (active)
- AC50 [8]: 62.6 µM (active)

Compound: O=C1NC(=O)C(=Cc2csc3ccccc23)C(=O)N1
- IC50 [9]: 59.7 µM (active)
- IC50 [10]: > 66 µM (inactive)
- IC50 [11]: > 66 µM (inactive)
- IC50 [12]: 26.9 µM (active)
- AC50 [13]: 6.34 µM (active)

Compound: CC(/C=C\c1cccnc1)=C/C(=O)O
- EC50 [14]: 11 µM (active)

Compound: CC(CC(=O)O)(CC(=O)O)C(=O)O
- AC50 [15]: inconclusive
- AC50 [16]: inconclusive

Compound: COc1ccc(C)cc1/N=c1\ssnc1Cl
- IC50 [17]: > 100 µM (inactive)
- IC50 [18]: 22.5 µM (active)

Compound: NC(=O)c1cc2ccc(O)cc2o/c1=N\Cc1ccccc1
- AC50 [19]: 18.7 µM (active)

Compound: C/C(=N/Nc1ccccc1[N+](=O)[O-])c1ccc([N+](=O)[O-])cc1
- IC50 [20]: > 100 µM (inactive)
- IC50 [21]: 69.6 µM (inactive)
- IC50 [22]: > 100 µM (inactive)
- IC50 [23]: 77.3 µM (active)

Compound: O=C1CCC(=O)N(O)CCCCCNC(=O)CCC(=O)N(O)CCCCNC(=O)CCC(=O)N(O)CCCCCN1 [DESMETHYLENYLNOCARDAMINE]
- IC50 [24]: > 119 µM (inactive)
- IC50 [25]: > 119 µM (inactive)
